# According to patent US8802597B2, “Herbicidal pyrimidines” (E I du Pont de Nemours and Company, priority 2003, dated 2014):
# Tests used:
# Type in all cases: in vivo
# [1] = tested on: common sowthistle (Sonchus oleraceous); experiment: Test G pre/postemergence
# In short: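 Seeds or nutlets were planted and treated preemergence with compound formulated in a non-phytotoxic solvent mixture containing surfactant; plants 2 to 18 cm tall (1- to 4-leaf stage) received postemergence sprays of the same formulation. After 12 to 21 days in a greenhouse, injury was rated visually against untreated controls on a 0–100 scale (100 = complete control).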
# [2] = tested on: sugarcane (Saccharum officinarum); experiment: Test G sugarcane pre/postemergence
# From the text: Also at a different time, seed pieces (nodes) of sugarcane (Saccharum officinarum) were planted and treated preemergence and/or postemergence with some of the test chemicals formulated in the same manner. Treated plants and controls were maintained in a greenhouse for 14 days, after which time the treated plants were compared to controls and visually evaluated.
# (§1) Plant response ratings, summarized in Table G, are based on a scale of 0 to 100 where 0 is no effect and 100 is complete control. A dash (-) response means no test result.
# [3] = tested on: olive (Olea europaea) trees; experiment: Test G post-directed application; settings: 1500 g ai/ha, scale 0 to 100
# Procedure: (§2) At a different time, established container-grown grape (Vitus vinifera) vines, and olive (Olea europaea) and orange (Citrus sinensis) trees were treated with some of the test chemicals formulated in the same manner and applied to the soil surface and the lower 5 cm of the plant vines or trunks (post-directed application). Plants ranged in height from 30 to 100 cm. The applications were made using a hand sprayer delivering a volume of 990 L/ha. Treated plants and controls were maintained in a greenhouse for 28 days, after which time the treated plants were compared to controls and visually evaluated.
# as §1
# [4] = tested on: grape (Vitus vinifera) vines; experiment: Test G post-directed application; settings: 1500 g ai/ha, scale 0 to 100
# Procedure: as §2, §1
# [5] = tested on: orange (Citrus sinensis) trees; experiment: Test G post-directed application; settings: 1500 g ai/ha, scale 0 to 100
# Procedure: as §2, §1
# [6] = tested on: sulfonylurea herbicide-susceptible (SU-susceptible) catchweed bedstraw (GALAP; Galium aparine); experiment: Test K postemergence; settings: 15 days
# Procedure: (§3) Seeds of plant species selected from sulfonylurea herbicide-susceptible (SU-susceptible) and sulfonylurea herbicide-resistant (SU-resistant) catchweed bedstraw (GALAP; Galium aparine) and wheat (TRZAW; Triticum aestivum) were treated with postemergence applications of test chemicals formulated in a non-phytotoxic solvent mixture which included a surfactant. Plants were treated at the 2-3 leaf stage and 2 whorl stage for wheat and catchweed bedstraw, respectively. Treated plants and controls were maintained in a controlled growth environment for 15 days after which time all species were compared to controls and visually evaluated. Plant response ratings, summarized in Table K, are based on a scale of 0 to 100 where 0 is no effect and 100 is complete control. A dash (-) response means no test result.
# [7] = tested on: sulfonylurea herbicide-resistant (SU-resistant) catchweed bedstraw (GALAP; Galium aparine); experiment: Test K postemergence; settings: 15 days
# Procedure: as §3
# [8] = tested on: wheat (TRZAW; Triticum aestivum); experiment: Test K postemergence; settings: 15 days
# Procedure: as §3
# [9] = Postemergence, 250 g ai/ha, scale 0 to 100
# [10] = Postemergence, 500 g ai/ha, scale 0 to 100
# [11] = Postemergence, 62 g ai/ha, scale 0 to 100
# [12] = Postemergence, 125 g ai/ha, scale 0 to 100
# [13] = Preemergence, 62 g ai/ha, scale 0-100
# [14] = Preemergence, 125 g ai/ha, scale 0-100
# [15] = Preemergence, 250 g ai/ha, scale 0-100
smiles,measurement,setting,value
"CCOC(=O)c1nc(C2CC2)nc(N)c1Br [Compound 1, ethyl 6-amino-5-bromo-2-cyclopropyl-4-pyrimidinecarboxylate]","Plant response rating, Sowthistle",[1]; [9],95
same,"Plant response rating, Sowthistle",[1]; [10],100
same,"Plant response rating, Sowthistle",[1]; [11],95
same,"Plant response rating, Sowthistle",[1]; [12],95
same,"Plant response rating, Sowthistle","[1]; Postemergence, 375 g ai/ha, scale 0 to 100",95
same,"Plant response rating, Sowthistle",[1]; [13],95
same,"Plant response rating, Sowthistle",[1]; [14],100
same,"Plant response rating, Sowthistle",[1]; [15],100
same,"Plant response rating, Sowthistle","[1]; Preemergence, 500 g ai/ha, scale 0-100",100
same,"Plant response rating, Sowthistle","[1]; Preemergence, 500 g ai/ha, scale 0 to 100",100
same,"Plant response rating, Sugarcane",[2]; [9],13
same,"Plant response rating, Sugarcane",[2]; [10],38
same,"Plant response rating, Sugarcane","[2]; Postemergence, 31 g ai/ha, scale 0 to 100",0
same,"Plant response rating, Sugarcane",[2]; [11],0
same,"Plant response rating, Sugarcane",[2]; [12],3
same,"Plant response rating, Sugarcane",[2]; [13],0
same,"Plant response rating, Sugarcane",[2]; [14],0
same,"Plant response rating, Sugarcane",[2]; [15],0
same,"Plant response rating, Sugarcane","[2]; Preemergence, 375 g ai/ha, scale 0-100",0
same,"Plant response rating, Olive",[3],50
same,"Plant response rating, Grape",[4],100
same,"Plant response rating, Orange",[5],50
same,Plant response rating (0 to 100 scale),[6]; 4 g a.i./ha,63
same,Plant response rating (0 to 100 scale),[6]; 8 g a.i./ha,80
same,Plant response rating (0 to 100 scale),[6]; 16 g a.i./ha,98
same,Plant response rating (0 to 100 scale),[6]; 31 g a.i./ha,98
same,Plant response rating (0 to 100 scale),[6]; 62 g a.i./ha,100
same,Plant response rating (0 to 100 scale),[6]; 125 g a.i./ha,100
same,Plant response rating (0 to 100 scale),[7]; 4 g a.i./ha,100
same,Plant response rating (0 to 100 scale),[7]; 8 g a.i./ha,100
same,Plant response rating (0 to 100 scale),[7]; 16 g a.i./ha,100
same,Plant response rating (0 to 100 scale),[7]; 31 g a.i./ha,100
same,Plant response rating (0 to 100 scale),[7]; 62 g a.i./ha,100
same,Plant response rating (0 to 100 scale),[7]; 125 g a.i./ha,100
same,Plant response rating (0 to 100 scale),[8]; 4 g a.i./ha,0
same,Plant response rating (0 to 100 scale),[8]; 8 g a.i./ha,0
same,Plant response rating (0 to 100 scale),[8]; 16 g a.i./ha,0
same,Plant response rating (0 to 100 scale),[8]; 31 g a.i./ha,25
same,Plant response rating (0 to 100 scale),[8]; 62 g a.i./ha,30
same,Plant response rating (0 to 100 scale),[8]; 125 g a.i./ha,38
